According to ChEMBL document CHEMBL6103622 (J Med Chem, 2025):
Calls of active or inactive are those of the source. No cut-off for these calls is given here.

Experiments:
BMDM = assay: Induction of repolarization of M2 like macrophage into M1 phenotype in female C57BL/6 mouse BMDM cells assessed as increase in Tnf mRNA expression at 10 to 100 nM stimulated with mouse IL4/IL-13 for 24 hrs followed by compound addition and measured after 24 hrs by qPCR analysis; type: functional, cell-based; conditions: dose 10-100 nM
[1] = target: Macrophage colony-stimulating factor 1 receptor (Homo sapiens, UniProt P07333); assay: Binding affinity to recombinant CSF-1R (unknown origin) assessed as dissociation rate constant by SPR analysis
[2] = system: Colorectal cancer organoid; assay: Antitumor activity against patient derived CRC organoids assessed as change in morphology of organoids at 10 to 100 nM incubated for 72 hrs; type: functional, tissue-based; conditions: Homo sapiens, Colorectum, dose 10-100 nM

Chain of Macrophage colony-stimulating factor 1 receptor (P07333 whole entry): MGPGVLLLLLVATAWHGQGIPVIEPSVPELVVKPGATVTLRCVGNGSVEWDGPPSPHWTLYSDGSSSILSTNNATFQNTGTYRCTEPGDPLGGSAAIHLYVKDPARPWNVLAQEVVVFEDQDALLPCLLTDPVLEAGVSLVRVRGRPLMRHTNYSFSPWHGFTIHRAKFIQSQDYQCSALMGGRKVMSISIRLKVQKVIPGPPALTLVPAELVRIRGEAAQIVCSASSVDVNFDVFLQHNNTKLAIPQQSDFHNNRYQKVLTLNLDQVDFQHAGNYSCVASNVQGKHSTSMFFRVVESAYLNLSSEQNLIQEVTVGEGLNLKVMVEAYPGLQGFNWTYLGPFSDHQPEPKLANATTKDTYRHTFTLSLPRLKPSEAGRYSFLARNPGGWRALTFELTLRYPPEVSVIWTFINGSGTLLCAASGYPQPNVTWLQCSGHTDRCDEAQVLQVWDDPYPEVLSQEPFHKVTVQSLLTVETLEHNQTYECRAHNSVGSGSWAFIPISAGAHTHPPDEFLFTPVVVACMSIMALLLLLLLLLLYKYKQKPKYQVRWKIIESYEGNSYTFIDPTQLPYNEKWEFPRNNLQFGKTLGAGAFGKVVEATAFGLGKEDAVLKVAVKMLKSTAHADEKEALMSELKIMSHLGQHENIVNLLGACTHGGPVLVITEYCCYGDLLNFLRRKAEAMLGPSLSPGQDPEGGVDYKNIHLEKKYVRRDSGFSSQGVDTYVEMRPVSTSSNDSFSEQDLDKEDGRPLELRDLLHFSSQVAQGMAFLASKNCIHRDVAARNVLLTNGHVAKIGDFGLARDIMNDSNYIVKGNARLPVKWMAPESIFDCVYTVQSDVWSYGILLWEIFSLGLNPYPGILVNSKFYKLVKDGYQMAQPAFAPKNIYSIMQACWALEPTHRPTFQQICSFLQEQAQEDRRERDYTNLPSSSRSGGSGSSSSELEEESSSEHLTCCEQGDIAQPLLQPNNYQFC

koff [1]: 0.00315 s⁻¹
Compound: Cc1nc(NC(=O)N[C@@H]2CCCC[C@H]2O)ccc1Oc1c[nH]c2ncc(Cl)cc12
Activity (BMDM): Active
Activity [2]: inactive
